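Cells were grown in 96-well plates and exposed to each compound for 48 hours at five concentrations; endpoints were interpolated linearly between bracketing concentrations, or set to the highest concentration if not reached. GI50 is the concentration that inhibits growth by half.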 The source made the active and inactive calls. Rule as the data show it: active = GI50 up to about 1.1 µM and inactive = higher.
What was measured:
Test in all cases: growth of human tumour cells (NCI), 48 h
A498 = tested on: A498
A549 = tested on: A549
EKVX = tested on: EKVX
HCT-116 = tested on: HCT-116
HOP-62 = tested on: HOP-62
HT-29 = tested on: HT-29
K562 = tested on: K562
MCF7 = tested on: MCF7
MDA-N = tested on: MDA-N
NCI-H460 = tested on: NCI-H460
OVCAR-3 = tested on: OVCAR-3
RXF 393 = tested on: RXF 393
SF-295 = tested on: SF-295
SN12C = tested on: SN12C
UACC-62 = tested on: UACC-62
UO-31 = tested on: UO-31
Hs-578T = tested on: Hs-578T
SK-MEL-5 = tested on: SK-MEL-5

Compound | GI50 (A498) | GI50 (A549) | GI50 (EKVX) | GI50 (HCT-116) | GI50 (HOP-62) | GI50 (HT-29) | GI50 (K562) | GI50 (MCF7) | GI50 (MDA-N) | GI50 (NCI-H460) | GI50 (OVCAR-3) | GI50 (RXF 393) | GI50 (SF-295) | GI50 (SN12C) | GI50 (UACC-62) | GI50 (UO-31) | GI50 (Hs-578T) | GI50 (SK-MEL-5)
CCCCc1ccc(N2C(=O)c3cccnc3S2(=O)=O)cc1 | > 100 µM (inactive) | > 100 µM (inactive) | > 100 µM (inactive) | > 100 µM (inactive) | > 100 µM (inactive) | > 100 µM (inactive) | > 100 µM (inactive) | > 100 µM (inactive) | > 100 µM (inactive) | > 100 µM (inactive) | > 100 µM (inactive) | > 100 µM (inactive) | > 100 µM (inactive) | > 100 µM (inactive) | > 100 µM (inactive) | > 100 µM (inactive) |  | 
c1ccc(CSc2nc(N3CCCCC3)c3cn[nH]c3n2)cc1 | 15.6 µM (inactive) | 27.4 µM (inactive) | 20.3 µM (inactive) | 19.2 µM (inactive) | 17.1 µM (inactive) | 31.8 µM (inactive) | 40.3 µM (inactive) | 26.9 µM (inactive) |  | 22.8 µM (inactive) | 24.5 µM (inactive) | 16.1 µM (inactive) | 24.9 µM (inactive) | 19.7 µM (inactive) | 15.4 µM (inactive) | 16.6 µM (inactive) | 17.3 µM (inactive) | 16.5 µM (inactive)
CCC(C)N1CN(c2ccccc2)C2(CCN(CCCSc3ccc(F)cc3)CC2)C1=O (stereo not given) |  | 3.94 µM (inactive) | 3.33 µM (inactive) | 2.88 µM (inactive) | 2.11 µM (inactive) | 2.15 µM (inactive) | 2.22 µM (inactive) | 3.09 µM (inactive) | 2.9 µM (inactive) |  | 2.33 µM (inactive) | 2.84 µM (inactive) | 2.35 µM (inactive) | 3.78 µM (inactive) | 5.47 µM (inactive) | 2.42 µM (inactive) |  | 1.96 µM (inactive)
CCn1c(=O)c2nc(SC)sc2n(-c2ccc(C)cc2)c1=O |  | > 100 µM (inactive) |  | > 100 µM (inactive) | > 100 µM (inactive) | > 100 µM (inactive) | > 100 µM (inactive) | > 100 µM (inactive) | > 100 µM (inactive) | > 100 µM (inactive) | > 100 µM (inactive) | > 100 µM (inactive) | > 100 µM (inactive) | > 100 µM (inactive) |  | 32.1 µM (inactive) | 21.3 µM (inactive) | > 100 µM (inactive)
O=C(CNc1cccc([N+](=O)[O-])c1)Nn1c(-c2ccccc2)nc2ccccc2c1=O | 0.0112 µM (active) | 1.74 µM (inactive) | 2.41 µM (inactive) | 0.508 µM (active) | 1.97 µM (inactive) | 0.312 µM (active) | 0.528 µM (active) | 0.389 µM (active) |  | 0.555 µM (active) | 2.38 µM (inactive) | 0.37 µM (active) | 1.58 µM (inactive) | 0.508 µM (active) | 0.212 µM (active) | 0.743 µM (active) | 0.581 µM (active) | 1.02 µM (active)
CC(=O)O[C@@H]1O[Si](C(C)(C)C)(C(C)(C)C)[C@H](C)[C@H]1C | > 100 µM (inactive) | 41 µM (inactive) | 41.7 µM (inactive) | 29.9 µM (inactive) | > 100 µM (inactive) | 18.6 µM (inactive) | 31.8 µM (inactive) | 19.1 µM (inactive) | > 100 µM (inactive) |  | 24 µM (inactive) |  | 90.8 µM (inactive) | > 100 µM (inactive) | 83.6 µM (inactive) | > 100 µM (inactive) |  | 26.1 µM (inactive)

— ChEMBL document CHEMBL1201862, “PubChem BioAssay data set” (2004)
